Laboratory results published in US7507792B2, “MDA-7 proteins and methods of use thereof” (The Trustees of Columbia University In The City of New York, priority 1993, dated 2009).

What was measured:
Assay type in all cases: cell-based, human
HL-525 cells = assay: Cell growth (cell counts); settings: 6 d, 3 nM TPA, 1 μM RA, 400 nM Vit D3
Procedure: Cell counts were determined by hemocytometer chamber counting. Immunofluorescence tests for reactivity with the OKM1 antibody (Ortho Pharmaceutical Corp., Raritan, N.J.) were performed as previously described (Murao et al., 1983).

H0-1 cells = assay: Northern blotting analysis of steady-state mRNA levels; settings: FIG. 1 concentrations
Procedure: Steady-state levels of specific mRNAs were determined by Northern blotting analysis of total RNA probed with appropriate ^32P-labeled gene probes as described previously (14-16). RNAs were analyzed from cells treated with inducer for 24 hours, treated for 24 hours with inducer followed by growth for 72 hours in the absence of inducer, or treated continuously for 96 hours with the inducer. The concentration of inducing compounds used were the same as those used for growth studies. The effect of conditioned medium on gene expression changes was determined by treating H0-1 cells for 24 hours with a 1:2 dilution of conditioned medium (equal volumes of conditioned medium and DMEM supplemented with 10% fetal bovine serum (DMEM-10) or for 96 hours with a 1:4 dilution of conditioned medium (1 vol. of conditioned medium to 3 vol. of DMEM-10). The probes used in the present study were specific for β-actin (17), γ-actin (17), c-jun (18), c-myc (19), fibronectin (20), gro/MGSA (21), HLA Class I antigen (22), HLA Class II antigen (HLA-DRβ) (22), α5 integrin (23), β1 integrin (24), ISG-15 (25), ISG-54 (25), jun-B (26), and tenascin (27). Northern blots were also probed with a ^32P-labeled GAPDH gene (15) to verify similar mRNA expression under the various experimental conditions. Following hybridization, the filters were washed and exposed for autoradiography.

mda-6 (WAF1/CIP1/SDI1) = assay: Induction of mda-6 (WAF1/CIP1/SDI1) expression in HL-60 cells (Northern blotting, RT-PCR); settings: TPA 3 nM, Vit D3 400 nM, RA 1 μM, DMSO 1%
Procedure: HL-60 cells were originally provided by Dr. R. C. Gallo (National Cancer Institute, Bethesda, Md.) (Collins et al., 1978; Huberman & Callaham, 1979). HL-60 cells designated HL-525 were derived by cloning HL-60 cells after subculturing 102 times in the presence of increasing concentrations (up to 3 μM) of TPA at 5- to 8-day intervals (Homma et al., 1986; Mitchell et al., 1986). […] Prior to the experiments described in this study, the HL-525 cells were subcultured more than 20 times in the absence of TPA. Cells were grown in 100-mm tissue culture dishes in RPMI 1640 medium supplemented with 20% fetal bovine serum, penicillin (100 units/ml) and streptomycin (100 μg/ml) (Grand Island Biological Co., NY) at 37° C. in an atmosphere of 5% CO2 in air in a humidified incubator. The 1,25-(OH)2D3(Vit D3) and TPA were dissolved in a final concentration of 0.01% DMSO, and all-trans retinoic acid (RA) was dissolved in 0.1% DMSO in culture medium. […]
RNA was purified by centrifugation through a CsC1 cushion as described by Chirgwin et al. (1979). […] Following hybridization, the filters were washed and exposed for autoradiography (Reddy et al., 1991; Su et al., 1991; Jiang et al., 1992). mda-6 and GAPDH gene expression were also determined by reverse transcription-polymerase chain reaction (RT-PCR) as described (Adollahi et al. 1991; Lin et al., 1994). […]

`CC1=C(/C=C/C(C)=C/C=C/C(C)=C/C(=O)O)C(C)(C)CCC1` [RA, trans-retinoic acid] was tested, and the “reduction in growth (cell numbers)” value (HL-525 cells) was 35%, the “HLA Class I antigen gene expression” value (H0-1 cells; 96 h) was “did not significantly alter” and the fibronectin expression (H0-1 cells; 96 h) was “least effective”. For the same compound, the “induction of gro/MGSA gene expression” value (H0-1 cells; 96 h) was “did not”, the tenascin expression (H0-1 cells; 96 h) was “decreased tenascin expression” and the α5 integrin expression (H0-1 cells; 96 h) was “reduced”. For the same compound, the “β-actin and γ-actin expression” value (H0-1 cells; 96 h) was “did not significantly alter”.

In the case of `C=C(C)[C@@]12O[C@@]3(c4ccccc4)O[C@@H]1[C@@H]1[C@@H]4O[C@]4(CO)[C@@H](O)[C@]4(O)C(=O)C(C)=C[C@H]4[C@@]1(O3)[C@H](C)[C@H]2OC(=O)/C=C/C=C/c1ccccc1` [MEZ, mezerein], the “HLA Class I antigen gene expression” value (H0-1 cells; 96 h) is reported as “did not significantly alter”, the fibronectin expression (H0-1 cells; 96 h) is reported as “less potent” and the “induction of gro/MGSA gene expression” value (H0-1 cells; 96 h) is reported as “did not”. For the same compound, the tenascin expression (H0-1 cells; 96 h) was “decreased tenascin expression”, the “c-jun and jun-B expression” value (H0-1 cells; 96 hours) was “increase” and the c-myc expression (H0-1 cells; 96 hours) was “downregulated”.

With `CCCCCCCCCCCCCC(=O)O[C@@H]1[C@@H](C)[C@@]2(O)[C@@H](C=C(CO)C[C@]3(O)C(=O)C(C)=C[C@@H]23)[C@@H]2C(C)(C)[C@]12OC(C)=O` [TPA, 12-O-tetradecanoyl-phorbol-13-acetate] the “time of treatment at which mda-6 expression is induced” value (mda-6 (WAF1/CIP1/SDI1)) was no more than 2 h.
